From ChEMBL document CHEMBL5143625, “Isolation, synthesis and bioactivity evaluation of isoquinoline alkaloids from Corydalis hendersonii Hemsl. against gastric cancer in vitro and in vivo” (Bioorg Med Chem, 2022)
The source made the active and inactive calls. The rule behind the calls is not given here.

Columns and labels:
[1] = test system: MGC-803; assay: Antiproliferative activity against human MGC-803 cells assessed as reduction in cell viability after 24 hrs by MTT assay; type: functional, cell-based; conditions: MGC-803, 24 h
[2] = test system: MGC-803; assay: Inhibition of colony formation in human MGC-803 cells at 0.5 to 4 uM after 7 to 10 days by crystal violet staining based assay; type: functional, cell-based; conditions: dose 0.5-4 µM, time 7-10 day, DDE = dose-dependent effect
[3] = test system: MGC-803; assay: Antiproliferative activity against human MGC-803 cells assessed as EdU positive cells at 0.5 to 4 uM for 24 hrs by y EdU assay (reference value: 65.2%); type: functional; conditions: dose 0.5-4 µM
[4] = test system: HGC-27; assay: Antiproliferative activity against human HGC-27 cells assessed as EdU positive cells at 1 to 8 uM for 24 hrs by y EdU assay (reference value: 56.2%); type: functional; conditions: dose 1-8 µM
[5] = test system: MGC-803; assay: Inhibition of cell migration in human MGC-803 cells assessed as reduction in migration at 0.5 to 4 uM for 24 hrs by transwell migration assay; type: functional, cell-based; conditions: dose 0.5-4 µM, DDE = dose-dependent effect
[6] = test system: HGC-27; assay: Inhibition of cell invasion in human HGC-27 cells assessed as reduction in invasion at 1 to 8 uM for 24 hrs by transwell invasion assay; type: functional, cell-based; conditions: dose 1-8 µM, DDE = dose-dependent effect
[7] = test system: MGC-803; assay: Down regulation of MMP9 expression in human MGC-803 cells at 1.25 to 10 uM after 24 hrs by western blot analysis; type: functional, cell-based; conditions: dose 1.25-10 µM, DDE = dose-dependent effect
[8] = test system: MGC-803; assay: Induction of cell cycle arrest in human MGC-803 cells assessed as cells accumulation at G2/M phase at 1.25 to 10 uM after 48 hrs by propidium iodide staining based flow cytometric analysis(reference value: 13.1%); type: functional; conditions: dose 1.25-10 µM
[9] = test system: MGC-803; assay: Induction of apoptosis in human MGC-803 cells assessed as increase in Bax expression at 1.25 to 10 uM by western blot analysis; type: functional, cell-based; conditions: dose 1.25-10 µM, DDE = dose-dependent effect
[10] = test system: HGC-27; assay: Induction of apoptosis in human HGC-27 cells assessed as increase in Bax expression at 2 to 16 uM by western blot analysis; type: functional, cell-based; conditions: dose 2-16 µM, DDE = dose-dependent effect
[11] = test system: HGC-27; assay: Induction of apoptosis in human HGC-27 cells assessed as decrease in cytochrome C expression at 2 to 16 uM by western blot analysis; type: functional, cell-based; conditions: dose 2-16 µM, DDE = dose-dependent effect
[12] = test system: MGC-803; assay: Induction of apoptosis in human MGC-803 cells assessed as increase in cleaved caspase-3 expression at 1.25 to 10 uM by western blot analysis; type: functional, cell-based; conditions: dose 1.25-10 µM, DDE = dose-dependent effect
[13] = test system: HGC-27; assay: Induction of apoptosis in human HGC-27 cells assessed as increase in cleaved caspase-9 expression at 2 to 16 uM by western blot analysis; type: functional, cell-based; conditions: dose 2-16 µM, DDE = dose-dependent effect
[14] = test system: MGC-803; assay: Inhibition of PI3K/AKT/mTOR signalling pathway in human MGC-803 cells assessed as reduction in PI3K phosphorylation at 1.25 to 10 uM by western blot analysis; type: cell-based; conditions: dose 1.25-10 µM, DDE = dose-dependent effect
[15] = test system: HGC-27; assay: Inhibition of PI3K/AKT/mTOR signalling pathway in human HGC-27 cells assessed as reduction in AKT phosphorylation at 2 to 16 uM by western blot analysis; type: cell-based; conditions: dose 2-16 µM, DDE = dose-dependent effect
[16] = test system: HGC-27; assay: Inhibition of DNA topoisomerase 1 in human HGC-27 cells assessed as relaxation of supercoiled plasmid pBR322 DNA at 15 to 30 uM incubated for 30 mins by agarose gel electrophoresis; type: cell-based; conditions: dose 15-30 µM
[17] = Half life in Sprague-Dawley rat at 50 mg/kg, ip measured upto 24 hrs by LC-MS analysis; type: ADME, organism-based; conditions: in vivo
[18] = test system: MGC-803; assay: Antitumor activity against human MGC-803 cells xenografted in immunodeficient nude mouse assessed as tumor volume at 50 mg/kg, ip administered for 3 weeks (reference value: 1039.6 mm3); type: functional
[19] = Toxicity in immunodeficient nude mouse xenografted with human MGC-803 cells assessed as reduction in body weight at 50 mg/kg, ip administered for 3 weeks relative to control; type: organism-based; conditions: in vivo, 504 h

IC50 [1]: 5.1 µM
half-life [17]: 2.3 h
SMILES: Oc1c(Cc2nccc3cc4c(cc23)OCO4)ccc2c1OCO2
inhibition [2]: Dde
Activity [3]: 19.9%
Activity [4]: 20.8%
inhibition [5]: Dde
inhibition [6]: Dde
Activity [7]: Dde
Activity [8]: 54.4%
Activity [9]: Dde
Activity [10]: Dde
Activity [11]: Dde
Activity [12]: Dde
Activity [13]: Dde
inhibition [14]: Dde
inhibition [15]: Dde
inhibition [16]: Active
Activity [18]: 440.1 mm3
Activity [19]: Non-Toxic
